target: T1, human PAH with the R408W mutation (Homo sapiens, UniProt P00439, R408W); test: Cell Based Phenylalanine Flux Assay; conditions: A375 cells expressing human R408W PAH; 24 hrs compound incubation; 13C-Tyrosine by LC-MS; average where tested multiple times; read-out: AC50;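 also: Ten-point dose curve from 2-fold serial dilutions, run in duplicate at 0.5% DMSO final, tracer step used 20 µM sepiapterin and 800 µM labeled phenylalanine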
T1 construct: expressed in transfected cells
T1 sequence (P00439 1-452 R408W): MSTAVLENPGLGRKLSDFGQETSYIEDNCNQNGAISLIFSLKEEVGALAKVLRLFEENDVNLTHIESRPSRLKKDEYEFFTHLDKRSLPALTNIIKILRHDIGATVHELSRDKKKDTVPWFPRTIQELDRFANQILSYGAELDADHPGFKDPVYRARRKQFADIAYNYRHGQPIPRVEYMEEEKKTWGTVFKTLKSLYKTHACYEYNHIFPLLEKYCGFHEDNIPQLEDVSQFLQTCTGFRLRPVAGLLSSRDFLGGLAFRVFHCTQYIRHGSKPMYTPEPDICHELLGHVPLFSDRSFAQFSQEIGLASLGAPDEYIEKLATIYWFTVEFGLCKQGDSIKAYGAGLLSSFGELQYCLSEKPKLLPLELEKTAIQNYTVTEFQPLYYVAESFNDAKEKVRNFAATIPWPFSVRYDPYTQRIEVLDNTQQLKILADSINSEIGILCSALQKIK
Protocol: Compounds were resuspended in DMSO, and 2-fold serial dilutions were performed to generate a 10-point dose curve. Compounds were added to plated cells in a total volume of 100 μl, and a final DMSO concentration of 0.5%. Each compound was tested in duplicate. Following compound addition, cells were placed in a 5% CO2, 37° C. tissue culture incubator for 24 hrs. […] 20 μM sepiapterin and 800 μM 13C9,15N-Phenylalanine were added. After 4 hours, cell media was removed. An aliquot of 10 μl of cell media was combined with 200 μl of extraction buffer (80% acetonitrile/20% H2O) for each well. Determination of ^13C-Tyrosine concentration was assessed by liquid chromatography mass spectrometry.
Where a compound was tested multiple times, the average value of the tests is reported.

Row | SMILES | AC50
1 | Cn1nc(C(F)F)cc1C(=O)N1CCc2[nH]cnc2[C@H]1c1cc2c(Cl)cccn2n1 [Example 1368, (S)-(4-(4-chloropyrazolo [1,5-a]pyridin-2-yl)-6,7-dihydro-1H-imidazo[4,5-c]pyridin-5(4H)-yl)(3-(difluoromethyl)-1-methyl-1H-pyrazol-5-yl)methanone] | < 500 nM
2 | Cn1nc(C(F)F)cc1C(=O)N1CCc2[nH]cnc2[C@H]1c1cc2c(C(F)F)cccn2n1 [Example 1372, (S)-(3-(difluoromethyl)-1-methyl-1H-pyrazol-5-yl)(4-(4-(difluoromethyl)pyrazolo [1,5-a]pyridin-2-yl)-6,7-dihydro-1H-imidazo[4,5-c]pyridin-5(4H)-yl)methanone] | < 500 nM
3 | Cn1nc(C(F)F)cc1C(=O)N1CCc2[nH]cnc2[C@@H]1c1cc2c(C(F)F)cccn2n1 [Example 1373, (R)-(3-(difluoromethyl)-1-methyl-1H-pyrazol-5-yl)(4-(4-(difluoromethyl)pyrazolo [1,5-a]pyridin-2-yl)-6,7-dihydro-1H-imidazo[4,5-c]pyridin-5(4H)-yl)methanone] | 1000 to 5000 nM
4 | O=C(c1nnc(-c2ccn(C(F)F)n2)o1)N1CCc2[nH]cnc2[C@@H]1c1cc2c(C(F)F)cccn2n1 [Example 1376, (R)-(5-(1-(difluoromethyl)-1H-pyrazol-3-yl)-1,3,4-oxadiazol-2-yl)(4-(4-(difluoromethyl)pyrazolo[1,5-a]pyridin-2-yl)-6,7-dihydro-1H-imidazo[4,5-c]pyridin-5(4H)-yl)methanone] | > 5000 nM
5 | Cc1cccc(-c2nnc(C(=O)N3CCc4[nH]cnc4[C@H]3c3cc4ccccn4n3)o2)n1 [Example 1382, (S)-(5-(6-methylpyridin-2-yl)-1,3,4-oxadiazol-2-yl)(4-(pyrazolo[1,5-a]pyridin-2-yl)-6,7-dihydro-1H-imidazo[4,5-c]pyridin-5(4H)-yl)methanone] | < 500 nM
6 | Cn1nc(C(F)F)cc1C(=O)N1CCc2[nH]cnc2[C@H]1c1cc2cccc(C(F)(F)F)n2n1 [Example 1386, (S)-(3-(difluoromethyl)-1-methyl-1H-pyrazol-5-yl)(4-(7-(trifluoromethyl)pyrazolo [1,5-a]pyridin-2-yl)-6,7-dihydro-1H-imidazo[4,5-c]pyridin-5(4H)-yl)methanone] | 500 to 1000 nM

same assay, conditions: A375 cells expressing human R408W PAH; 24 hrs with compound, then sepiapterin and 13C9,15N-Phenylalanine for 4 hours; 13C-Tyrosine by LC-MS; average where tested multiple times; read-out: AC50

Row | SMILES | AC50
7 | Cc1cccc(-c2nnc(C(=O)N3CCc4[nH]cnc4[C@H]3c3cc4cccc(C)n4n3)o2)n1 [Example 1398, (S)-(4-(7-methylpyrazolo [1,5-a]pyridin-2-yl)-6,7-dihydro-1H-imidazo[4,5-c]pyridin-5(4H)-yl)(5-(6-methylpyridin-2-yl)-1,3,4-oxadiazol-2-yl)methanone] | < 500 nM
8 | Cn1cc(-c2nnc(C(=O)N3CCc4[nH]cnc4[C@H]3c3cc4cccc(C(F)F)n4n3)o2)cn1 [Example 1406, (S)-(4-(7-(difluoromethyl)pyrazolo[1,5-a]pyridin-2-yl)-6,7-dihydro-1H-imidazo [4,5-c]pyridin-5(4H)-yl)(5-(1-methyl-1H-pyrazol-4-yl)-1,3,4-oxadiazol-2-yl)methanone] | < 500 nM
9 | O=C(c1nnc(-c2cnccn2)o1)N1CCc2[nH]cnc2[C@H]1c1cc2c(C(F)F)cccn2n1 [Example 1414, (S)-(4-(4-(difluoromethyl)pyrazolo[1,5-a]pyridin-2-yl)-6,7-dihydro-1H-imidazo [4,5-c]pyridin-5(4H)-yl)(5-(pyrazin-2-yl)-1,3,4-oxadiazol-2-yl)methanone] | < 500 nM
10 | O=C(c1nnc(-c2cnccn2)o1)N1CCc2[nH]cnc2[C@@H]1c1cc2c(C(F)F)cccn2n1 [Example 1415, (R)-(4-(4-(difluoromethyl)pyrazolo[1,5-a]pyridin-2-yl)-6,7-dihydro-1H-imidazo [4,5-c]pyridin-5(4H)-yl)(5-(pyrazin-2-yl)-1,3,4-oxadiazol-2-yl)methanone] | 1000 to 5000 nM
11 | O=C(c1cnn2cc(-c3ccccn3)ccc12)N1CCc2[nH]cnc2[C@H]1c1cc2ccccn2n1 [Example 1416, (S)-(4-(pyrazolo[1,5-a]pyridin-2-yl)-6,7-dihydro-1H-imidazo[4,5-c]pyridin-5(4H)-yl)(6-(pyridin-2-yl)pyrazolo[1,5-a]pyridin-3-yl)methanone] | < 500 nM
